# The source made the active and inactive calls. The rule behind the calls is not given here.
# Columns and labels:
# A549 [1] = assay: Induction of apoptosis in human A549 cells overexpressing c-MET assessed as reduction in red fluorescence intensity incubated for 24 hrs by JC-1 staining based fluorescence inverted microscopic analysis; format: functional, cell-based; settings: dose 1-2.5 µM
# [2] = biological target: Proto-oncogene tyrosine-protein kinase receptor Ret (Homo sapiens) (UniProt P07949); assay: Inhibition of RET (unknown origin) at 10 uM
# A549 [3] = assay: Induction of cell cycle arrest in human A549 cells overexpressing c-MET assessed as accumulation of cells at G2/M phase at 2.5 uM incubated for 24 hrs by RNase A/propidium iodide staining based flow cytometric analysis (reference value: 12.41 %); format: functional
# [4] = biological target: Vascular endothelial growth factor receptor 1 (Homo sapiens) (UniProt P17948); assay: Inhibition of FLT1 (unknown origin) at 10 uM
# Chain of Vascular endothelial growth factor receptor 1 (Homo sapiens) (P17948 whole entry): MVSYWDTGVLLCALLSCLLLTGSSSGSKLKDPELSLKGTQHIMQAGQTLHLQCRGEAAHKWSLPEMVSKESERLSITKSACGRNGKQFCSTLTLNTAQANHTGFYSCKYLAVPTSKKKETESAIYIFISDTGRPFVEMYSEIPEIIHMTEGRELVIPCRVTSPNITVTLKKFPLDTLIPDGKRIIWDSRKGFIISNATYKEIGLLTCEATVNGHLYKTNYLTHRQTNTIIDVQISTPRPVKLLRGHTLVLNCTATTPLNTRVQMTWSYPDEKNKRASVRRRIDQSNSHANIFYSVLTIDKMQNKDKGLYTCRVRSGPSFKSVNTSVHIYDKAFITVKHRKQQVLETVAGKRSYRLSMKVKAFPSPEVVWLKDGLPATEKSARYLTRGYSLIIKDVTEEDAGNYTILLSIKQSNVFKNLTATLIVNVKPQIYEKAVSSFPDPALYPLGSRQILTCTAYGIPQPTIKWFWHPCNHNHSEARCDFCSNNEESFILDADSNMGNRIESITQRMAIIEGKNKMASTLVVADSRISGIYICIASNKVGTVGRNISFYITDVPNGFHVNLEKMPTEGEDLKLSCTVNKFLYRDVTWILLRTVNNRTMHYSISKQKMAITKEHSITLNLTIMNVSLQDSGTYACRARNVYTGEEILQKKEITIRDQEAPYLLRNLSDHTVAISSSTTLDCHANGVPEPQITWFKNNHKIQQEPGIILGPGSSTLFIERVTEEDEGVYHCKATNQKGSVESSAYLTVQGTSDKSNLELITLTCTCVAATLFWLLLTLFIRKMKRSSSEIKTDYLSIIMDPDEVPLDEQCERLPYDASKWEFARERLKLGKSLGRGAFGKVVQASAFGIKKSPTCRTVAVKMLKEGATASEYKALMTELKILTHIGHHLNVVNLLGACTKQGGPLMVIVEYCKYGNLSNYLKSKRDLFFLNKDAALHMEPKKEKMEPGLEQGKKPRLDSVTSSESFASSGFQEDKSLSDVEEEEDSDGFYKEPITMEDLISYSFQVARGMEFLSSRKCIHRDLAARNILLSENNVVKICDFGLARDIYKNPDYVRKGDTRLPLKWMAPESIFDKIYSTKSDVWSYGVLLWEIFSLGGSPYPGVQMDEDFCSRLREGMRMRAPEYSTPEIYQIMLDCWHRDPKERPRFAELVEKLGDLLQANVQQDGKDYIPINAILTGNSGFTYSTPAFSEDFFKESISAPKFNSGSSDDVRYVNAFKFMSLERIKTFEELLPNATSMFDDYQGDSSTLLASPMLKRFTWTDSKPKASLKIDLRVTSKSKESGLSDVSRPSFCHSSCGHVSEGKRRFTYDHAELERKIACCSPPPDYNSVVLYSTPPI
# A549 [5] = assay: Antitumor activity against human A549 cells overexpressing c-MET xenografted in BALB/c nude mouse assessed as tumor growth inhibition at 40 mg/kg, IG qod measured for 24 days relative to control; format: functional; settings: A549, po, 576 h, time 24 day, read-out: TGI
# PC-9 [6] = assay: Antiproliferative activity against human PC-9 cells overexpressing c-Met and EGFR assessed as reduction in cell viability incubated for 72 hrs by MTT assay; format: functional, cell-based; settings: PC-9, 72 h
# L02 [7] = assay: Induction in apoptosis in human L02 cells assessed as early apoptotic cells at 1 uM incubated for 24 hrs by Annexin V-FITC/Propidium Iodide staining based flow cytometry analysis (reference value: 0.26 %); format: toxicity, cell-based; settings: l02, 24 h
# [8] = biological target: Epidermal growth factor receptor (Homo sapiens, UniProt P00533, L858R); assay: biochemical
# Chain of Epidermal growth factor receptor (P00533 25-1210 L858R limits assumed): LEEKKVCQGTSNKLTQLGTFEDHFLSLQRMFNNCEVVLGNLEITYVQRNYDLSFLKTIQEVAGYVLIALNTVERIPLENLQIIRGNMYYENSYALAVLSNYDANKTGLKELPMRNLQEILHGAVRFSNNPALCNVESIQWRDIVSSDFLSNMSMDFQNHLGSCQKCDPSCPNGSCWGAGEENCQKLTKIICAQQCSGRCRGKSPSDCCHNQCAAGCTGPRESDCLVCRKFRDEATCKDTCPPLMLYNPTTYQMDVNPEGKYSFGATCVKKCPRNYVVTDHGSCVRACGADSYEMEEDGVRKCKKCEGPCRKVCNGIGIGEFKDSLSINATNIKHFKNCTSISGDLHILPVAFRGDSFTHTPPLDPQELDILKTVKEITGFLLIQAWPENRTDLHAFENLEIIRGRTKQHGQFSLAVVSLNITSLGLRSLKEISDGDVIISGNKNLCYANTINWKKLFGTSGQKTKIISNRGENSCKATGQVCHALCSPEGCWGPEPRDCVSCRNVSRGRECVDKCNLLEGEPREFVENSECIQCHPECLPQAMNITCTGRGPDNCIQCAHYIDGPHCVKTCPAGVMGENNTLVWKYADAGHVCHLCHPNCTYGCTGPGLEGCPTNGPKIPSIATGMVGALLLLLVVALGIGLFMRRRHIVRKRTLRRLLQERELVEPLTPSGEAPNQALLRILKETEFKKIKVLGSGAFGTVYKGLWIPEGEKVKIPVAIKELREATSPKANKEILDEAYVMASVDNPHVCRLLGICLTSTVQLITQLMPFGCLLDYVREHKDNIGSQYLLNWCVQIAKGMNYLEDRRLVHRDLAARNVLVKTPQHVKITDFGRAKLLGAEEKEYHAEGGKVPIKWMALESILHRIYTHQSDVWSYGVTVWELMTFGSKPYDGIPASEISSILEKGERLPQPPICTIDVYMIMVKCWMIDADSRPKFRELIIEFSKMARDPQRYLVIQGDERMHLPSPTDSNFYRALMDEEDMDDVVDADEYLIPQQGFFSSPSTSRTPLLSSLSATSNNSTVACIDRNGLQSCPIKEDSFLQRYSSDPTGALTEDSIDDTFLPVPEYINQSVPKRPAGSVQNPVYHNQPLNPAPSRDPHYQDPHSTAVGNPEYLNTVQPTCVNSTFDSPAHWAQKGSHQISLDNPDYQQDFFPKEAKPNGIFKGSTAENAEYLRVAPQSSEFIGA
# L02 [9] = assay: Induction in apoptosis in human L02 cells assessed as early apoptotic cells at 2.5 uM incubated for 24 hrs by Annexin V-FITC/Propidium Iodide staining based flow cytometry analysis (reference value: 0.26 %); format: toxicity, cell-based; settings: l02, 24 h
# NCI-H1975 [10] = assay: Induction in apoptosis in human NCI-H1975 cells assessed as viable cells at 2.5 uM incubated for 24 hrs by Annexin V-FITC/Propidium Iodide staining based flow cytometry analysis (reference value: 91.58 %); format: functional; settings: read-out: Activity
# [11] = biological target: Insulin-like growth factor 1 receptor (Homo sapiens) (UniProt P08069); assay: Inhibition of IGF-1R (unknown origin) at 10 uM
# Chain of Insulin-like growth factor 1 receptor (Homo sapiens) (P08069 31-736 limits assumed): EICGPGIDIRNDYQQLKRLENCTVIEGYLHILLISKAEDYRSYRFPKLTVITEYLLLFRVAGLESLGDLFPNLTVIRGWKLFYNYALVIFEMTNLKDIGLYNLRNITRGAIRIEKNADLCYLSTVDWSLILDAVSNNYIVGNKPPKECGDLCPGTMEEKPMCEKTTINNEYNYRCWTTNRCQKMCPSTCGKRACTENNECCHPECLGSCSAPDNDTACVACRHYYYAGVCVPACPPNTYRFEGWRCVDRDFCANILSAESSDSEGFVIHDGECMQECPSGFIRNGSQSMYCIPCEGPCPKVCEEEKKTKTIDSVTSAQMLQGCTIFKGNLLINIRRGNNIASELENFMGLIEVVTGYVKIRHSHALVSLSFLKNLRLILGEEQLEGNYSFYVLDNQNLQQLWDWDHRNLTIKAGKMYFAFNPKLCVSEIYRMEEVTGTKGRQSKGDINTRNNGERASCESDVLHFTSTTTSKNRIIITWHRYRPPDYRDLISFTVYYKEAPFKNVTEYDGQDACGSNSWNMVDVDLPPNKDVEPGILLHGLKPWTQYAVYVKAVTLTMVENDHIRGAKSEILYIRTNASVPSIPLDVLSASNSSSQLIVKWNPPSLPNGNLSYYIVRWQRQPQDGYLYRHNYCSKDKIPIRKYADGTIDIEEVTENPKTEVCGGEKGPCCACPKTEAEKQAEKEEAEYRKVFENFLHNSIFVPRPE
# Chain of Insulin-like growth factor 1 receptor (Homo sapiens) (P08069 741-1367 limits assumed): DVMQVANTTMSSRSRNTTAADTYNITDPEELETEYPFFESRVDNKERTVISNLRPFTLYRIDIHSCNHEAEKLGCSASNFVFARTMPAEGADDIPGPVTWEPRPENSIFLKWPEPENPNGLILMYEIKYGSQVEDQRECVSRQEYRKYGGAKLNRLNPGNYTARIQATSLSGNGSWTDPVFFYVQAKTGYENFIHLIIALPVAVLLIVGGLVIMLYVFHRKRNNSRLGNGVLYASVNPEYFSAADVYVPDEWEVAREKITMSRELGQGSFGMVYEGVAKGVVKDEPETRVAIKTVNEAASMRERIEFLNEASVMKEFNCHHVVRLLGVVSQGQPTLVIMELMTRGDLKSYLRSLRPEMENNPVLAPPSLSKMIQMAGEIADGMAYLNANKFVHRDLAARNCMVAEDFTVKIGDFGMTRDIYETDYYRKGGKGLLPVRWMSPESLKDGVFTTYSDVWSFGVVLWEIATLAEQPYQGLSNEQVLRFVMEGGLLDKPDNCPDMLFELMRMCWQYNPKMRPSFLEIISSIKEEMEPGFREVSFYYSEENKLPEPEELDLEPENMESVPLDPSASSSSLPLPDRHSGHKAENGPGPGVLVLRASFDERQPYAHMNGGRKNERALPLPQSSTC
# PC-9 [12] = assay: Antimigratory activity against EGF-induced cell migration in serum starved human PC-9 cells assessed as increase in width of artificial gap incubated for 24 hrs by wound healing assay; format: functional, cell-based; settings: dose 1-2.5 µM
# A549 [13] = assay: Antiproliferative activity against human A549 cells overexpressing c-Met and EGFR assessed as reduction in cell viability incubated for 72 hrs by MTT assay; format: functional, cell-based; settings: A549, 72 h
# [14] = Acute toxicity in KM mouse assessed as cell damage or necrosis in kidney at 100 mg/kg, IG qa administered for 7 days and measured on day 8 by hematoxylin and eosin staining based assay; format: organism-based; settings: in vivo, po, 192 h, time 8 day
# [15] = biological target: Tyrosine-protein kinase receptor UFO (Homo sapiens) (UniProt P30530); assay: Inhibition of AXL (unknown origin) at 10 uM
# [16] = Cardiotoxicity in KM mouse assessed as effect on lactate dehydrogenase level at 100 mg/kg, IG qd administered for 7 days by automatic biochemical analyzer; format: toxicity, organism-based; settings: in vivo, po, 168 h, time 7 day
# [17] = Induction in apoptosis in human L02 cells assessed as viable cells at 1 uM incubated for 24 hrs by Annexin V-FITC/Propidium Iodide staining based flow cytometry analysis (reference value: 92.75 %); format: toxicity, cell-based; settings: read-out: Activity
# [18] = Hepatotoxicity in KM mouse assessed as effect on alanine aminotransferase level at 100 mg/kg, IG qd administered for 7 days by automatic biochemical analyzer; format: toxicity, organism-based; settings: in vivo, po, 168 h, time 7 day
# NCI-H1975 [19] = assay: Induction in apoptosis in human NCI-H1975 cells assessed as late apoptotic cells at 1 uM incubated for 24 hrs by Annexin V-FITC/Propidium Iodide staining based flow cytometry analysis (reference value: 4.46 %); format: functional
# [20] = biological target: Fibroblast growth factor receptor 1 (Homo sapiens) (UniProt P11362); assay: Inhibition of FGFR1 (unknown origin) at 10 uM
# Chain of Fibroblast growth factor receptor 1 (Homo sapiens) (P11362 22-822 limits assumed): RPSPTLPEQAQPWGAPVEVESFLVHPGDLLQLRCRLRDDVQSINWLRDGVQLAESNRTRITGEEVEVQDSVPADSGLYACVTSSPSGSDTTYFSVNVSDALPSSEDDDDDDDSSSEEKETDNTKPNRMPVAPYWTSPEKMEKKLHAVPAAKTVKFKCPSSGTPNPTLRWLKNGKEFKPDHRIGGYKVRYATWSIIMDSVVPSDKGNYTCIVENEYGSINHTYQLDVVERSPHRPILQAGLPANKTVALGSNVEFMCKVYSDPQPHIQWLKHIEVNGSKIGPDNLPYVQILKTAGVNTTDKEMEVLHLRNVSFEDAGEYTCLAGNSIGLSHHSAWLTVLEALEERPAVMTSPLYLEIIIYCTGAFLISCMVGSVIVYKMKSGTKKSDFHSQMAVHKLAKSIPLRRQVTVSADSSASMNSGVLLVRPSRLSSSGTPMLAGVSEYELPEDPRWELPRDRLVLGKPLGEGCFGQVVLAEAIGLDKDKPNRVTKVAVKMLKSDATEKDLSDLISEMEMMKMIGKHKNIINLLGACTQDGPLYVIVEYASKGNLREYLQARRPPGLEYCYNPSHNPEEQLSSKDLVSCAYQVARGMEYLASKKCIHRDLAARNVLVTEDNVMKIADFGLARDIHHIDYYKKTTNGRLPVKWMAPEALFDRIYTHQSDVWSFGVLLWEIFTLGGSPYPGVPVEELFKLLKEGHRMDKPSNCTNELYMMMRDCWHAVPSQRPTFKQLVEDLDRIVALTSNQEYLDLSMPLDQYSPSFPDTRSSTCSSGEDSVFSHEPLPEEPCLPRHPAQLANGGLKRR
# NCI-H1975 [21] = assay: Induction in apoptosis in human NCI-H1975 cells assessed as necrotic cells at 2.5 uM incubated for 24 hrs by Annexin V-FITC/Propidium Iodide staining based flow cytometry analysis (reference value: 1.42 %); format: functional
# A549 [22] = assay: Inhibition of colony formation in human A549 cells overexpressing c-MET at 1 uM preincubated for 48 hrs followed by media replacement for every 2 days for 14 days by crystal violet staining based microscopic analysis relative to control; format: functional
smiles,measurement,setting,value
C=CC(=O)Nc1cc2c(Oc3ccc(NC(=O)n4c(=O)c(-c5ccccc5)c(C)n4C)cc3F)cccc2cc1OC,Activity,A549 [1],Dose-Dependent Effect
same,inhibition,[2],inactive
same,Activity,A549 [3],10.98%
same,inhibition,[4],Active
same,inhibition in vivo at 40 mg/kg,A549 [5],25%
same,IC50,PC-9 [6],1.05 µM
same,Activity,L02 [7],0.21%
same,IC50,[8],0.0681 µM
same,Activity,L02 [9],0.13%
same,viability at 2.5 µM,NCI-H1975 [10],85.5%
same,inhibition,[11],inactive
same,Activity,PC-9 [12],Dose-Dependent Effect
same,IC50,A549 [13],1.06 µM
same,Activity,[14],Non-Toxic
same,inhibition,[15],inactive
same,Activity,[16],Non-Toxic
same,"viability at 24 h, 1 µM",[17],91.9%
same,Activity,[18],Non-Toxic
same,Activity,NCI-H1975 [19],7.27%
same,inhibition,[20],inactive
same,Activity,NCI-H1975 [21],2.49%
same,inhibition at 1 µM,A549 [22],~50%

# From ChEMBL document CHEMBL5537122, “Design, synthesis, and biological evaluation of 4-(2-fluorophenoxy)-7-methoxyquinazoline derivatives as dual EGFR/c-Met inhibitors for the treatment of NSCLC” (Eur J Med Chem, 2024)
